Reference: ChEMBL document CHEMBL4251553, “Synthesis, anticancer evaluation and pharmacokinetic study of novel 10-O-phenyl ethers of dihydroartemisinin” (Eur J Med Chem, 2017)
Activity calls are given as the source filed them. The calls are words filed in the database; no cut-off is given here.

How the values were obtained:
[1] = tested on: NCI/ADR-RES; experiment: Effect on P-gp protein expression in human MCF7/ADR cells at 0.05 to 0.1 uM after 24 to 48 hrs by Western blot analysis; format: functional, cell-based
[2] = tested on: NCI/ADR-RES; experiment: Antiproliferative activity against human MCF7/ADR cells after 96 hrs by MTT assay; format: functional
[3] = Plasma concentration in Sprague-Dawley rat at 10 mg/kg, iv administered as single dose measured at 4 hrs post dosing by LC-MS/MS analysis; format: ADME, organism-based
[4] = tested on: NCI/ADR-RES; experiment: Cell cycle arrest in human MCF7/ADR cells assessed as accumulation at sub-G1 phase at 1 uM after 24 hrs by propidium iodide staining based flow cytometry (reference value: 1.08%); format: functional
[5] = tested on: MCF7; experiment: Cell cycle arrest in human MCF7 cells assessed as accumulation at G2/M phase at 1 uM after 24 hrs by propidium iodide staining based flow cytometry (reference value: 22.57%); format: functional
[6] = tested on: NCI/ADR-RES; experiment: Cell cycle arrest in human MCF7/ADR cells assessed as accumulation at S-phase at 0.5 uM after 24 hrs by propidium iodide staining based flow cytometry (reference value: 25.87%); format: functional
[7] = tested on: NCI/ADR-RES; experiment: Cell cycle arrest in human MCF7/ADR cells assessed as accumulation at G0/G1 phase at 0.5 uM after 24 hrs by propidium iodide staining based flow cytometry (reference value: 45.98%); format: functional
[8] = tested on: MCF7; experiment: Cell cycle arrest in human MCF7 cells assessed as accumulation at G0/G1 phase at 1 uM after 48 hrs by propidium iodide staining based flow cytometry (reference value: 57.21%); format: functional
[9] = tested on: MCF7; experiment: Cell cycle arrest in human MCF7 cells assessed as accumulation at S-phase at 0.5 uM after 24 hrs by propidium iodide staining based flow cytometry (reference value: 18.24%); format: functional
[10] = tested on: MCF7; experiment: Cell cycle arrest in human MCF7 cells assessed as accumulation at G2/M phase at 0.5 uM after 24 hrs by propidium iodide staining based flow cytometry (reference value: 22.57%); format: functional
[11] = tested on: NCI/ADR-RES; experiment: Cell cycle arrest in human MCF7/ADR cells assessed as accumulation at G0/G1 phase at 1 uM after 24 hrs by propidium iodide staining based flow cytometry (reference value: 45.98%); format: functional
[12] = Plasma concentration in Sprague-Dawley rat at 10 mg/kg, iv administered as single dose measured at 0.25 hrs post dosing by LC-MS/MS analysis; format: ADME, organism-based
[13] = tested on: MCF7; experiment: Cell cycle arrest in human MCF7 cells assessed as accumulation at S-phase at 0.5 uM after 48 hrs by propidium iodide staining based flow cytometry (reference value: 18.39%); format: functional
[14] = tested on: NCI/ADR-RES; experiment: Cell cycle arrest in human MCF7/ADR cells assessed as accumulation at S-phase at 1 uM after 48 hrs by propidium iodide staining based flow cytometry (reference value: 29.45%); format: functional
[15] = tested on: NCI/ADR-RES; experiment: Cell cycle arrest in human MCF7/ADR cells assessed as accumulation at G2/M phase at 1 uM after 24 hrs by propidium iodide staining based flow cytometry (reference value: 27.75%); format: functional
[16] = Plasma concentration in Sprague-Dawley rat at 10 mg/kg, iv administered as single dose measured at 0.5 hrs post dosing by LC-MS/MS analysis; format: ADME, organism-based
[17] = Plasma concentration in Sprague-Dawley rat at 10 mg/kg, iv administered as single dose measured at 24 hrs post dosing by LC-MS/MS analysis; format: ADME, organism-based
[18] = Apparent volume of distribution in Sprague-Dawley rat at 10 mg/kg, iv administered as single dose by LC-MS/MS analysis; format: ADME, organism-based; conditions: in vivo, read-out: Vz
[19] = tested on: MCF7; experiment: Antiproliferative activity against human MCF7 cells after 96 hrs by MTT assay; format: functional; conditions: MCF7, 96 h
[20] = tested on: MCF7; experiment: Cell cycle arrest in human MCF7 cells assessed as accumulation at G0/G1 phase at 1 uM after 24 hrs by propidium iodide staining based flow cytometry (reference value: 57.83%); format: functional
[21] = tested on: MCF7; experiment: Cell cycle arrest in human MCF7 cells assessed as accumulation at sub-G1 phase at 1 uM after 24 hrs by propidium iodide staining based flow cytometry (reference value: 1.78%); format: functional
[22] = tested on: MCF7; experiment: Cell cycle arrest in human MCF7 cells assessed as accumulation at G0/G1 phase at 0.5 uM after 48 hrs by propidium iodide staining based flow cytometry (reference value: 57.21%); format: functional
[23] = Apparent terminal half life in Sprague-Dawley rat at 10 mg/kg, iv administered as single dose by LC-MS/MS analysis; format: ADME, organism-based; conditions: in vivo, read-out: betat1/2(app) (converted)
[24] = Plasma concentration in Sprague-Dawley rat at 10 mg/kg, iv administered as single dose measured at 1 hr post dosing by LC-MS/MS analysis; format: ADME, organism-based
[25] = tested on: MCF7; experiment: Cell cycle arrest in human MCF7 cells assessed as accumulation at S-phase at 1 uM after 24 hrs by propidium iodide staining based flow cytometry (reference value: 18.24%); format: functional
[26] = tested on: NCI/ADR-RES; experiment: Downregulation of Cyclin-D1 protein expression in human MCF7/ADR cells at 0.05 to 0.1 uM after 24 to 48 hrs by Western blot analysis; format: functional, cell-based
[27] = tested on: NCI/ADR-RES; experiment: Cell cycle arrest in human MCF7/ADR cells assessed as accumulation at G0/G1 phase at 0.5 uM after 48 hrs by propidium iodide staining based flow cytometry (reference value: 38.76%); format: functional
[28] = tested on: MCF7; experiment: Cell cycle arrest in human MCF7 cells assessed as accumulation at sub-G1 phase at 0.5 uM after 48 hrs by propidium iodide staining based flow cytometry (reference value: 0.18%); format: functional
[29] = tested on: MCF7; experiment: Cell cycle arrest in human MCF7 cells assessed as accumulation at sub-G1 phase at 1 uM after 48 hrs by propidium iodide staining based flow cytometry (reference value: 0.18%); format: functional
[30] = AUC (0 to infinity) in Sprague-Dawley rat at 10 mg/kg, iv administered as single dose by LC-MS/MS analysis; format: ADME, organism-based; design: dose 10 mg/kg, route intravenous, time infinity; conditions: in vivo
[31] = tested on: NCI/ADR-RES; experiment: Cell cycle arrest in human MCF7/ADR cells assessed as accumulation at S-phase at 0.5 uM after 48 hrs by propidium iodide staining based flow cytometry (reference value: 29.45%); format: functional
[32] = tested on: NCI/ADR-RES; experiment: Cell cycle arrest in human MCF7/ADR cells assessed as accumulation at sub-G1 phase at 0.5 uM after 24 hrs by propidium iodide staining based flow cytometry (reference value: 1.08%); format: functional
[33] = tested on: MCF7; experiment: Cell cycle arrest in human MCF7 cells assessed as accumulation at S-phase at 1 uM after 48 hrs by propidium iodide staining based flow cytometry (reference value: 18.39%); format: functional
[34] = Selectivity ratio of GI50 for human MCF7 cells to GI50 for human MCF7/ADR cells; format: functional
[35] = tested on: MCF7; experiment: Cell cycle arrest in human MCF7 cells assessed as accumulation at G2/M phase at 1 uM after 48 hrs by propidium iodide staining based flow cytometry (reference value: 24.26%); format: functional
[36] = tested on: NCI/ADR-RES; experiment: Cell cycle arrest in human MCF7/ADR cells assessed as accumulation at sub-G1 phase at 1 uM after 48 hrs by propidium iodide staining based flow cytometry (reference value: 0.25%); format: functional
[37] = Apparent clearance in Sprague-Dawley rat at 10 mg/kg, iv administered as single dose by LC-MS/MS analysis; format: ADME, organism-based; conditions: in vivo, read-out: CL(app) (converted)

## C[C@H]1[C@@H](Oc2ccc(-c3cc(-c4ccccc4)[nH]n3)cc2)O[C@@H]2O[C@@]3(C)CC[C@H]4[C@H](C)CC[C@@H]1[C@@]24OO3
[1]
  Activity: inactive
[2]
  GI50: 18 nM
[3]
  concentration at 4 h: 147 ng/mL
[4]
  Activity: 4.73%
[5]
  Activity: 16.98%
[6]
  Activity: 21.64%
[7]
  Activity: 50.52%
[8]
  Activity: 85.04%
[9]
  Activity: 11.95%
[10]
  Activity: 16.94%
[11]
  Activity: 61.78%
[12]
  concentration at 0.25 h: 1720 ng/mL
[13]
  Activity: 3.87%
[14]
  Activity: 9.72%
[15]
  Activity: 23.83%
[16]
  concentration at 0.5 h: 583 ng/mL
[17]
  concentration at 24 h: 2.65 ng/mL
[18]
  Vd: 18 L/kg
[19]
  GI50: 210 nM
[20]
  Activity: 72.58%
[21]
  Activity: 0.56%
[22]
  Activity: 83.54%
[23]
  half-life: 3.58 h
[24]
  concentration at 1 h: 436 ng/mL
[25]
  Activity: 10.13%
[26]
  Activity: inactive
[27]
  Activity: 46.94%
[28]
  Activity: 0.38%
[29]
  Activity: 1.44%
[30]
  AUC(0-inf): 2920 ng·h/mL
[31]
  Activity: 20.41%
[32]
  Activity: 1.89%
[33]
  Activity: 2.14%
[34]
  RatioGI50: 11.7
[35]
  Activity: 11.53%
[36]
  Activity: 10.99%
[37]
  clearance: 57.7 mL/min/kg
